Among the data in patent publication US12391702B2, “Benzo[5,6][1,4]dioxino[2,3-b]pyridine compounds useful as IRAK4 inhibitors” (BRISTOL-MYERS SQUIBB COMPANY, priority 2020, dated 2025) are IC50 and EC50 values, retold here.

Chain of IRAK4 (Q9NWZ3 whole entry): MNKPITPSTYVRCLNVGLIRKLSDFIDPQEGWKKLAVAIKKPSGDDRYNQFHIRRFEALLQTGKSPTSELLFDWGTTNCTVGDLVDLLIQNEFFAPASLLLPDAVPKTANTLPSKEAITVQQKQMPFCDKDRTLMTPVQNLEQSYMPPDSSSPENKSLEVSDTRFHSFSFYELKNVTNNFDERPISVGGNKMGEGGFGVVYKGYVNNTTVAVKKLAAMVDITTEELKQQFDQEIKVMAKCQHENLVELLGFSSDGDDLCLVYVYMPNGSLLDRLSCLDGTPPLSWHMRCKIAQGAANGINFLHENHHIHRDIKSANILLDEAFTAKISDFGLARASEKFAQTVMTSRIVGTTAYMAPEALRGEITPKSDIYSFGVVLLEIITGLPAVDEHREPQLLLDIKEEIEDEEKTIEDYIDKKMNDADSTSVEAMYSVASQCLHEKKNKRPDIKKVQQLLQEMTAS

The first experiment addresses IRAK4 (Homo sapiens (Human), UniProt Q9NWZ3). In words: IRAK4 Inhibition Assay. To be noted: ATP 500 μM; IRAK4 0.6 nM; 60 min at room temperature. The class given is biochemical. As to the method: The assays were performed in U-bottom 384-well plates. The final assay volume was 30 μL prepared from 15 μL additions of enzyme and substrates (fluoresceinated peptide and ATP) and test compounds in assay buffer (20 mM HEPES pH 7.2, 10 mM MgCl2, 0.015% Brij 35 and 4 mM DTT). The reaction was initiated by the combination of IRAK4 with substrates and test compounds. The reaction mixture was incubated at room temperature for 60 min. and terminated by adding 45 μL of 35 mM EDTA to each sample. The reaction mixture was analyzed on the Caliper LABCHIP® 3000 (Caliper, Hopkinton, MA) by electrophoretic separation of the fluorescent substrate and phosphorylated product. Inhibition data were calculated by comparison to no enzyme control reactions for 100% inhibition and vehicle-only reactions for 0% inhibition. The final concentrations of reagents in the assays are ATP, 500 μM; FL-IPTSPITTTYFFFKKK peptide 1.5 μM; IRAK4, 0.6 nM; and DMSO, 1.6%.
What is called IC50 is the midpoint of a concentration-inhibition curve. As to `CCOCCNC(=O)c1cnc2c(c1NC(C)C)Oc1cc(C#N)ccc1O2` [Example 4, 7-cyano-N-(2-ethoxyethyl)-4-(isopropylamino)benzo[5,6][1,4]dioxino[2,3-b]pyridine-3-carboxamide], the IC50 came out at 82 nM.

With `CC(C)Nc1c(C(=O)NCc2cnco2)cnc2c1Oc1cc(C#N)ccc1O2` [Example 13, 7-cyano-4-(isopropylamino)-N-(oxazol-5-ylmethyl)benzo[5,6][1,4]dioxino[2,3-b]pyridine-3-carboxamide], the IC50 stood at 180 nM.

On to `COCCNC(=O)c1cnc2c(c1NC(C)C)Oc1cc(C#N)ccc1O2` [Example 5, 7-cyano-4-(isopropylamino)-N-(2-methoxyethyl)benzo[5,6][1,4]dioxino[2,3-b]pyridine-3-carboxamide], for which the IC50 is 150 nM.

For the molecule `CC(C)Nc1c(C(=O)NC2CCOCC2)cnc2c1Oc1cc(C#N)ccc1O2` [Example 3, 7-cyano-4-(isopropylamino)-N-(tetrahydro-2H-pyran-4-yl)benzo[5,6][1,4]dioxino [2,3-b]pyridine-3-carboxamide], the half-inhibitory concentration (IC50) came out at 60 nM.

In the case of `CC(C)Nc1c(C(=O)NCc2nccs2)cnc2c1Oc1cc(C#N)ccc1O2` [Example 19, 7-cyano-4-(isopropylamino)-N-(thiazol-2-ylmethyl)benzo[5,6][1,4]dioxino[2,3-b]pyridine-3-carboxamide], the IC50 is 170 nM.

For `CC(C)Nc1c(C(=O)NCC(C)(C)CO)cnc2c1Oc1cc(C#N)ccc1O2` [Example 7, 7-cyano-N-(3-hydroxy-2,2-dimethylpropyl)-4-(isopropylamino)benzo[5,6][1,4]dioxino[2,3-b]pyridine-3-carboxamide], the IC50 amounted to 270 nM.

For `CC(C)Nc1c(C(=O)NCc2nnc[nH]2)cnc2c1Oc1cc(C#N)ccc1O2` [Example 12, N-((4H-1,2,4-triazol-3-yl)methyl)-7-cyano-4-(isopropylamino)benzo[5,6][1,4]dioxino [2,3-b]pyridine-3-carboxamide], the IC50 is 140 nM.

Turning to `Cc1cc(CNC(=O)c2cnc3c(c2NC(C)C)Oc2cc(C#N)ccc2O3)on1` [Example 14, 7-cyano-4-(isopropylamino)-N-((3-methylisoxazol-5-yl)methyl)benzo[5,6][1,4]dioxino[2,3-b]pyridine-3-carboxamide], the IC50 was determined as 530 nM.

Turning to `CC(C)Nc1c(C(=O)NC[C@@H](F)C(C)(C)O)cnc2c1Oc1ccc(C#N)cc1O2` [Example 2, (R)-8-cyano-N-(2-fluoro-3-hydroxy-3-methylbutyl)-4-(isopropylamino)benzo[5,6][1,4]dioxino[2,3-b]pyridine-3-carboxamide], the IC50 is 8.5 nM.

With `CC(C)Nc1c(C(=O)N[C@H]2CC[C@H](O)CC2)cnc2c1Oc1cc(C#N)ccc1O2` [Example 6, 7-cyano-N-((1r,4r)-4-hydroxycyclohexyl)-4-(isopropylamino)benzo[5,6][1,4]dioxino[2,3-b]pyridine-3-carboxamide], the IC50 amounted to 31 nM.

Turning to `CC(C)Nc1c(C(=O)NCCC(C)(C)O)cnc2c1Oc1cc(C#N)ccc1O2` [Example 15, 7-cyano-N-(3-hydroxy-3-methylbutyl)-4-(isopropylamino)benzo[5,6][1,4]dioxino [2,3-b]pyridine-3-carboxamide], the IC50 is 22 nM.

Take `CC(C)Nc1c(C(=O)N[C@H](C)CCO)cnc2c1Oc1cc(C#N)ccc1O2` [Example 10, (R)-7-cyano-N-(4-hydroxybutan-2-yl)-4-(isopropylamino)benzo[5,6][1,4]dioxino [2,3-b]pyridine-3-carboxamide]: the IC50 turned out to be 160 nM.

As for `CC(C)CCNC(=O)c1cnc2c(c1NC(C)C)Oc1cc(C#N)ccc1O2` [Example 16, 7-cyano-N-isopentyl-4-(isopropylamino)benzo[5,6][1,4]dioxino[2,3-b]pyridine-3-carboxamide], the IC50 turned out to be 23 nM.

For `CC(C)Nc1c(C(=O)NCC2(CO)CC2)cnc2c1Oc1cc(C#N)ccc1O2` [Example 11, 7-cyano-N-((1-(hydroxymethyl)cyclopropyl)methyl)-4-(isopropylamino)benzo [5,6][1,4]dioxino[2,3-b]pyridine-3-carboxamide], the IC50 was found to be 440 nM.

For `CC(C)Nc1c(C(=O)NC(CCO)C2CC2)cnc2c1Oc1cc(C#N)ccc1O2` (centres unmarked) [Example 8, 7-cyano-N-(1-cyclopropyl-3-hydroxypropyl)-4-(isopropylamino)benzo[5,6][1,4]dioxino[2,3-b]pyridine-3-carboxamide], the 50% inhibitory concentration (IC50) was 220 nM.

`CC(C)Nc1c(C(=O)NC2CCNCC2)cnc2c1Oc1cc(C#N)ccc1O2` [Example 20, 7-cyano-4-(isopropylamino)-N-(piperidin-4-yl)benzo[5,6][1,4]dioxino[2,3-b]pyridine-3-carboxamide]: the IC50 was 85 nM.

`CC(C)Nc1c(C(=O)NCC2(CO)COC2)cnc2c1Oc1cc(C#N)ccc1O2` [Example 18, 7-cyano-N-((3-(hydroxymethyl)oxetan-3-yl)methyl)-4-(isopropylamino)benzo [5,6][1,4]dioxino[2,3-b]pyridine-3-carboxamide]: the concentration for half-maximal inhibition (IC50) came to 240 nM.

In the case of `CC(C)Nc1c(C(=O)NC2CCCOC2)cnc2c1Oc1cc(C#N)ccc1O2` (centres unmarked) [Example 9, 7-cyano-4-(isopropylamino)-N-(tetrahydro-2H-pyran-3-yl)benzo[5,6][1,4]dioxino [2,3-b]pyridine-3-carboxamide], the IC50 worked out at 92 nM.

Turning to `CC(C)Nc1c(C(=O)N[C@H]2CC[C@H](N)CC2)cnc2c1Oc1cc(C#N)ccc1O2` [Example 17, N-((1R,4R)-4-aminocyclohexyl)-7-cyano-4-(isopropylamino)benzo[5,6][1,4]dioxino [2,3-b]pyridine-3-carboxamide], the IC50 came out at 34 nM.

Another experiment deals with Human whole blood stimulated with a TLR2 agonist (lipoteichoic acid), IL-6 levels. In words: IRAK4 Whole Blood Assay. Type of experiment: cell-based. To be noted: 10 μg/mL lipoteichoic acid for 5 hours. On the procedure:
Human whole blood containing the anti-coagulant ACD-A was plated in 384-well plate (25 μL/well) and incubated with compounds for 60 minutes at 37° C. in a 5% CO2 incubator. The blood was stimulated with a TLR2 agonist, 10 μg/mL final concentration of lipoteichoic acid (Invivogen, San Diego, CA) in 25 μL RPMI (Gibco) for 5 hours in a 5% CO2 incubator. At the end of the incubation, plates were centrifuged at 2300 rpm for 5 minutes. Supernatants were harvested and analyzed for IL-6 levels by Flow Cytometry beads assay (BD Biosciences, San Jose, CA).
For orientation: EC50 means the concentration needed to bring the measured effect to its halfway point. Higher therefore signals lower potency in that assay. As for `CC(C)Nc1c(C(=O)NC[C@@H](F)C(C)(C)O)cnc2c1Oc1ccc(C#N)cc1O2` [Example 2, (R)-8-cyano-N-(2-fluoro-3-hydroxy-3-methylbutyl)-4-(isopropylamino)benzo[5,6][1,4]dioxino[2,3-b]pyridine-3-carboxamide], the midpoint of the response, the EC50, lay at 1700 nM.
